PubChem BioAssay AID1963843 (Molecular Pharmacology Branch, DTP, NCI, 2024)
pIC50: −log10 of the molar value.

Tested on: 616215-338-R-J1-PDC complex spheroid viability
Assay: Anticancer human tumor 616215-338-R-J1-PDC patient-derived colon adenocarcinoma cell line growth inhibition [POLQ]
Conditions: for pIC50: curve of first compound; for viability, T/C: stronger effect = lower value
Method: Multicellular complex tumor spheroid response to Polymerase (POL) inhibitors (novobiocin, ART-558, RP6685) in combination with a variety of drugs and investigational agents in selected tumor cell lines
The POL inhibitors (novobiocin, ART-558, and RP6685) were evaluated both individually and in combination with standard of care and investigational anticancer small molecules within a complex spheroid model of solid tumors. . Complex spheroids include a stromal component modeled by human endothelial cells (HUVEC) and fibroblasts modeled by human mesenchymal stem cells (MSCs). The concentration ranges selected for each drug and investigational agent were based upon clinically achievable concentrations if the clinical Cmax of the agent was known.
Compounds. The drugs and investigational agents: novobiocin (NSC847541), ART-558 (NSC835418), RP-6685 (NSC848927), peposertib (NSC802822), ceralasertib (NSC780249), elimusertib (NSC800525), camonsertib (NSC841442), AZD-1390 (NSC803789), olaparib (NSC753686), talazoparib (NSC767125), rucaparib (NSC756644), sotorasib (NSC818433), MRTX-1133 (NSC836407), SN-38 (NSC673596), topotecan (NSC609699), epotoside (NSC141540), doxorubicin (NSC123127), gemcitabine (NSC613327), 5-fluorouracil (NSC19893), paclitaxel (NSC125973), vemurafenib (NSC761431), MSA-2 (NSC828583), SN-011 (NSC837082), adavosertib (NSC754352), prexasertib (NSC758257), carboplatin (NSC241240) and oxaliplatin (NSC266046), were obtained from the National Cancer Institute (NCI) Developmental Therapeutics Program Chemical Repository (21). The FDA-approved anticancer drug set is available from the Developmental Therapeutics Program at https://dtp.cancer.gov/organization/dscb/obtaining/. […] The stock solutions were prepared in dimethyl sulfoxide (DMSO, Sigma-Aldrich, St. Louis, MO, cat. D2650), except for the platinum compounds which were prepared in saline (Quality Biological, Gaithersburg, MD, cat. 114-055-101), at 800-fold the tested concentration and stored at -70 degrees C prior to their use. All drugs and investigational agents were tested over a range starting from a high concentration at or near the clinical Cmax and decreasing in half-log increments. If the clinical Cmax for an agent had not been determined, the highest concentration tested was 10 microM, except for SN-38, which was tested at a high concentration of 1 microM.
Cell Culture. All cells were maintained in an incubator at 37 degrees C and 5% CO2 with 95% humidity. The PDC lines were cultured according to standard operating procedures established by the NCI PDMR (https://pdmr.cancer.gov). Table 3 of the manuscript, lists the cell lines along with the number of the three cell types plated to form the mct-spheroids and media for tumor cell growth. After thawing, all PDC lines, except 997537-175-T-J1-PDC and 415267-285-R-J2-PDC, were cultured in Matrigel-coated flasks prepared with a working solution of 1X Ham's F-12 nutrient mix, without supplementation (Thermo Fisher Scientific, cat. 11765054), 100 U/mL penicillin-streptomycin (Thermo Fisher Scientific, cat. 15140122), and 2.5% Matrigel (Corning Inc., Corning, NY, cat. 354248) for the first three passages. The two PDC lines 997537-175-T-J1-PDC and 415267-285-R-J2-PDC were cultured on uncoated flasks. The 857933-349-R-J2-PDC line was cultured in 6C/Colon 1B media containing advanced DMEM/F-12 (Thermo Fisher Scientific, cat. 12634028), 10 mM HEPES (Thermo Fisher Scientific, cat. 15630080), 1X GlutaMAX supplement (Thermo Fisher Scientific, cat. 35050061), 0.1 mg/mL primocin (InvivoGen, San Diego, CA, cat. ant-pm-2), 10% defined fetal bovine serum, heat inactivated (HyClone Laboratories Inc., Logan, UT, cat. SH30070.03HI), 50% L-WRN conditioned media (ATCC, cat. CRL-3276), 1.25 mM N-Acetyl-L-cysteine (Sigma-Aldrich, cat. A9165), 10 mM nicotinamide (Sigma-Aldrich, cat. N0636), 1X B-27 supplement (Thermo Fisher Scientific, cat. 17504044), 1X N-2 supplement (Thermo Fisher Scientific, cat. […]

[1] = second compound 0.0316 µM, first compound 0.0316 µM
[2] = second compound 0.0316 µM, first compound 0.1 µM
[3] = second compound 0.0316 µM, first compound 0.316 µM
[4] = second compound 0.0316 µM, first compound 1 µM
[5] = second compound 0.1 µM, first compound 0.0316 µM
[6] = second compound 0.1 µM, first compound 0.1 µM
[7] = second compound 0.1 µM, first compound 0.316 µM
[8] = second compound 0.1 µM, first compound 1 µM
[9] = second compound 0.316 µM, first compound 0.0316 µM
[10] = second compound 0.316 µM, first compound 0.1 µM
[11] = second compound 0.316 µM, first compound 0.316 µM
[12] = second compound 0.316 µM, first compound 1 µM
[13] = second compound 1 µM, first compound 0.0316 µM
[14] = second compound 1 µM, first compound 0.1 µM
[15] = second compound 1 µM, first compound 0.316 µM
[16] = second compound 1 µM, first compound 1 µM
[17] = second compound 3.16 µM, first compound 0.0316 µM
[18] = second compound 3.16 µM, first compound 0.1 µM
[19] = second compound 3.16 µM, first compound 0.316 µM
[20] = second compound 3.16 µM, first compound 1 µM
[21] = second compound 10 µM, first compound 0.0316 µM
[22] = second compound 10 µM, first compound 0.1 µM
[23] = second compound 10 µM, first compound 0.316 µM
[24] = second compound 10 µM, first compound 1 µM
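Further: spheroids exposed to compounds for one week before readout.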
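Wherever viability, T/C is given: percent viability relative to DMSO vehicle wells taken as 100%.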

`CCc1c2c(nc3ccc(O)cc13)-c1cc3c(c(=O)n1C2)COC(=O)[C@]3(O)CC` + Cc1cccc(N(C)C(=O)C2C(O)CCN2c2nc(C)cc(C(F)(F)F)c2C#N)c1 showed a pIC50 (second compound 0.0316 µM) of 7.06, a pIC50 (second compound 0.1 µM) of 7.04 and a pIC50 (second compound 0.316 µM) of 7.07. The pIC50 (second compound 1 µM) was 7.10, the pIC50 (second compound 3.16 µM) was 7.18 and the pIC50 (second compound 10 µM) was 7.32. It also gave a viability, T/C (second compound 0.0316 µM, first compound 0.00316 µM) of 104%, a viability, T/C (second compound 0.0316 µM, first compound 0.01 µM) of 97% and a viability, T/C [1] of 72.8%. The viability, T/C [2] was 49.3%, the viability, T/C [3] was 24.6% and the viability, T/C [4] was 20.8%. It also gave a viability, T/C (second compound 0.1 µM, first compound 0.00316 µM) of 114%, a viability, T/C (second compound 0.1 µM, first compound 0.01 µM) of 90.5% and a viability, T/C [5] of 71.9%. The viability, T/C [6] was 44.5%, the viability, T/C [7] was 33.5% and the viability, T/C [8] was 16.1%. The viability, T/C (second compound 0.316 µM, first compound 0.00316 µM) was 109%, the viability, T/C (second compound 0.316 µM, first compound 0.01 µM) was 87.1% and the viability, T/C [9] was 69.7%. For the same compound, the viability, T/C [10] was 48.1%, the viability, T/C [11] was 26.9% and the viability, T/C [12] was 18.6%. It also gave a viability, T/C (second compound 1 µM, first compound 0.00316 µM) of 111%, a viability, T/C (second compound 1 µM, first compound 0.01 µM) of 92.9% and a viability, T/C [13] of 79.9%. The viability, T/C [14] was 40.1%, the viability, T/C [15] was 26% and the viability, T/C [16] was 18.7%. The viability, T/C (second compound 3.16 µM, first compound 0.00316 µM) was 116%, the viability, T/C (second compound 3.16 µM, first compound 0.01 µM) was 80.7% and the viability, T/C [17] was 67.8%. For the same compound, the viability, T/C [18] was 41.6%, the viability, T/C [19] was 27.5% and the viability, T/C [20] was 22.1%. The viability, T/C (second compound 10 µM, first compound 0.00316 µM) was 97.7%, the viability, T/C (second compound 10 µM, first compound 0.01 µM) was 68.7% and the viability, T/C [21] was 62.3%. For the same compound, the viability, T/C [22] was 39%, the viability, T/C [23] was 25% and the viability, T/C [24] was 23.1%.

For `COc1ccc([C@@H](O)c2cc(-c3ncnc4cc(N5CCOCC5)ccc34)c(F)cc2Cl)nn1` + Cc1cccc(N(C)C(=O)C2C(O)CCN2c2nc(C)cc(C(F)(F)F)c2C#N)c1, the pIC50 (second compound 0.0316 µM) was < 5.00, the pIC50 (second compound 0.1 µM) was < 5.00 and the pIC50 (second compound 0.316 µM) was < 5.00. The pIC50 (second compound 1 µM) was < 5.00, the pIC50 (second compound 3.16 µM) was < 5.00 and the pIC50 (second compound 10 µM) was < 5.00. The viability, T/C [1] was 97.8%, the viability, T/C [2] was 108% and the viability, T/C [3] was 94.8%. The viability, T/C [4] was 113%, the viability, T/C (second compound 0.0316 µM, first compound 3.16 µM) was 101% and the viability, T/C (second compound 0.0316 µM, first compound 10 µM) was 78.7%. It also gave a viability, T/C [5] of 92.6%, a viability, T/C [6] of 108% and a viability, T/C [7] of 108%. For the same compound, the viability, T/C [8] was 109%, the viability, T/C (second compound 0.1 µM, first compound 3.16 µM) was 100% and the viability, T/C (second compound 0.1 µM, first compound 10 µM) was 72.2%. The viability, T/C [9] was 108%, the viability, T/C [10] was 108% and the viability, T/C [11] was 100%. It also gave a viability, T/C [12] of 111%, a viability, T/C (second compound 0.316 µM, first compound 3.16 µM) of 109% and a viability, T/C (second compound 0.316 µM, first compound 10 µM) of 73.5%. It also gave a viability, T/C [13] of 114%, a viability, T/C [14] of 111% and a viability, T/C [15] of 109%. The viability, T/C [16] was 122%, the viability, T/C (second compound 1 µM, first compound 3.16 µM) was 103% and the viability, T/C (second compound 1 µM, first compound 10 µM) was 70.5%. It also gave a viability, T/C [17] of 97.5%, a viability, T/C [18] of 104% and a viability, T/C [19] of 102%. It also gave a viability, T/C [20] of 102%, a viability, T/C (second compound 3.16 µM, first compound 3.16 µM) of 105% and a viability, T/C (second compound 3.16 µM, first compound 10 µM) of 80.3%. For the same compound, the viability, T/C [21] was 112%, the viability, T/C [22] was 100% and the viability, T/C [23] was 99.8%. For the same compound, the viability, T/C [24] was 111%, the viability, T/C (second compound 10 µM, first compound 3.16 µM) was 99.8% and the viability, T/C (second compound 10 µM, first compound 10 µM) was 55.6%.
